Entries after “also recorded” stand apart in the source; their conditions may differ.

Assay [1] in a line: Planar lipid bilayer single channel recordings of CtxA and flexible-template CtxA-DNA assemblies. Type of assay: biochemical. The procedure:
The lipid composition for the bilayers consisted of POPC, DOPE and POPS with a 7:3:1 (w/w) ratio (PC/PE/PS) or for the origami structures in diphytanoyl phosphatidylcholine (DiPhyPC). We dissolved the resulting lipid mixture in pentane (total lipid concentration: 10 mg/mL). The buffered electrolyte solution consisted of 1M NaCl, 10 mM HEPES, pH 7.4 or 3M CsCl, 10 mM HEPES, pH 7.4 in 30% glycerol.
We designed Teflon chambers with one big compartment (containing a maximum volume of 1.5 mL) and one small compartment (containing a maximum volume of 200 μL). We pretreated Teflon films (Eastern Scientific LLC, Rockville, MD) with apertures of 50 μm by pipetting 1 μL of pre-treatment solution—hexadecane in hexane 2.5% (v/v)—onto both sides of the aperture of the Teflon film. We then mounted the Teflon film in a Teflon chamber using high-vacuum grease (Dow Corning Corporation), separating the two compartments of the Teflon chamber. The only connection between the compartments was the aperture in the Teflon film over which we formed virtually solvent-free planar lipid bilayers using the technique described by Montal and Mueller^10. Briefly, we added electrolyte solution to both compartments (1.2 mL in the bigger compartment and 160 μL for the smaller one) and spread 1-2 μL of lipid solution onto the surface of the buffered electrolyte solution. After the solvent evaporated, a lipid monolayer (Langmuir film) formed at the air-water interface. […] We then thinned the membrane by lowering and raising the electrolyte solution in one compartment, until we measured a capacitance of 60±10 pF. To monitor capacitance, we applied a triangular voltage and the capacitance was either calculated by the amplifier or determined visually using the manual capacitance compensation of the amplifier. Prior to adding the peptide, we checked the stability of the bilayer (absence of leak currents, expected noise level) by applying transmembrane voltages of up to 200 mV for 5 min at both polarities. We used one of two different amplifiers, an EPC7 (HEKA Instruments Inc., Holliston, MA, USA) or a BC-535 (Warner Instruments Hamden, CT, USA)) and connected both compartments to the amplifier through two Ag/AgCl pellet electrodes (Warner Instruments Hamden, CT, USA). We placed the Teflon chambers inside Faraday cages, on BM4 vibration isolation platforms (Minus K® Technology, Inc., Inglewood, CA, USA). We carried out all experiments at room temperature (22±1° C.) and tested all setups with different model cells to confirm proper functionality of the amplifiers and function generators. We sampled currents at 50 kHz and low-pass 10 kHz. We analysed data using OriginLab (OriginLab Corporation, Northampton, MA, USA) and pClamp (Molecular Devices, Sunnyvale, CA, USA) software.
We performed the experiments with the peptide-DNA hybrid in two different ways: (i) we added all components sequentially—ssDNA-CtxA first, then the template strands, one after the other—or (ii) we mixed the ssDNA-CtxA with the spacer strand (with or without cholesterol) and the template strand in a DNA LoBind tube (Eppendorf Tubes, Hamburg, Germany) and let them react overnight at room temperature (pre-incubation experiments). We also performed the pre-incubation experiments with and without HPLC-SEC purification. In the case of unpurified assemblies, we added the DNA-modified peptides and the spacer strand stoichiometrically and then added the n-mer template (with n equal to 4, 6 or 8) at a ratio of 1 mole for n moles of DNA-modified peptide. When purifying the assemblies, we added the peptide-DNA monomers in excess compared to the template strand (at least 5 n moles of peptide for 1 mol of n-mer template) and removed the excess monomers using HPLC-SEC purification (Agilent SEC 3 column, 300 mm, […], 4.6 mm internal diameter). We then stored the collected assemblies at +4° C. for later use and add the spacer strand in excess prior to the experiment. […]

Another assay deals with A549 cells. Kind of assay: Cytotoxic activity: change in confluence of A549 cells over time (IncuCyte). The assay is classed as cell-based. The procedure:
We grew lung epithelial A549 cells in RPMI 1640 medium containing 25 mM HEPES, 1% L-glutamine, 10% fetal bovine serum and added 1% penicillin-streptomycin for prevention of bacterial contamination of cell cultures. We seeded the cells in 96-well plates (TPP, Trasadingen, Switzerland) with 10′000 cells per well, in a total volume of 50 uL per well. We placed the plates in the IncuCyte Zoom imaging system (Essen Bioscience, Ann Arbor, MI, USA) placed inside of an incubator set to 37° C. and 5% CO2 and monitored the growth of the cell by monitoring the change in confluence over time. We seeded the cells and left them to adhere and replicate for 20 h before adding the templated CtxA-DNA assemblies or native CtxA as control. We then measured the cell confluence every 2 h. To estimate the effect of the different peptide assemblies on the change in confluence over time, we fitted the observed confluence levels after peptide addition linearly.

[2] abbreviates: applied potential difference of +180 mV.

Consider “Ceratotoxin A (SIGSALKKALPVAKKIGKIALPIAKAALPVAAGLVG) [Native CtxA]”, for which, in assay [1], the “Minimum concentration to display significant / frequent pore formation” value was in the range of 10 to 20 nM and the Pore lifetime entry is given as “hundreds of milliseconds; also recorded: less than one second”. In addition, in assay [1] (setting [2]), the “Conductance, open state O1 (3-mer)” value was 50 ± 25 pS; the “Conductance, open state O2 (4-mer)” value was 510 ± 30 pS; the “Conductance, open state O3 (5-mer)” value came to 1645 ± 200 pS; the “Conductance, open state O4 (6-mer)” value is on record as 3125 ± 305 pS. Besides, in assay [1] (setting [2]), the “Conductance, open state O5 (7-mer)” value is listed as 4630 ± — pS and the “Conductance, open state O6 (8-mer)” value is reported as 6600 ± — pS. The Pore-forming activity result in assay [1] (total peptide concentration of 5 nM, +180 mV) was “little to no pore formation”. In the assay with A549 cells, the “Concentration necessary to reduce cell viability” value fell in the range of 50 to 100 µM and the “Total CtxA concentration sufficient to completely stop replication of the cells” value was found to be 100 µM.
